This is an account of results in paper PMC7193532 (Acta Crystallographica. Section D, Structural Biology, 2020).

Data set [1] concerns ClpC1–ClpP1–ClpP2 complex. As to conditions: 2019, cited from earlier work; for effect on proteolytic activity: ECU, lassomycin: ref Choules et al., Gavrish et al., 2014; for effect on proteolysis: CYMA, RUF-I: ref Schmitt et al., 2011, Choules et al.
In data set [2] the test system is ClpC1. Particulars: cited from earlier work.
The target of data set [3] is ClpC1-FL (Mycobacterium tuberculosis, UniProt P9WPC9). It counts as binding. As to conditions: for Stoichiometry (Sm): calculated from SPR responses, compound molecules per ClpC1; for improvement of χ^2, multi-site versus one-site fit: multi-site fit better; for difference between Kd1 and Kd2: multi-site model.
The conditions of data set [4]: co-crystallization attempts.
Data set [5] deals with Mtb.
In data set [6] the test system is ClpC1. Particulars: cited from earlier work. The source holds these as a separate data set.
The target in data set [7] is full-length ClpC1 (ClpC1-FL) (Mycobacterium tuberculosis) (UniProt P9WPC9). In words: SPR.
Data set [8] deals with N-terminal domain of ClpC1 (ClpC1-NTD), residues 1-145 plus a C-terminal His tag (Mycobacterium tuberculosis) (UniProt P9WPC9). In words: crystal structure.

Values after ≈ are worked out from the molar mass of the structure shown. *1 amine or outer side, *2 acyl side, *3 side chain or, on linkers, in order; H or OH if unused. Where a SMILES comes first, the peptide text is derived from it. Bridges are numbered along the chain shown (N, C = ends). [ ]: non-standard residue; d: D form. The star is where a group is joined. ξ: configuration not given here. Phe(3R-OH) = O=C([C@@H](N[*:1])[C@H](O[*:3])c1ccccc1)[*:2]; NMeTrp(4-OMe) = CN[CH](Cc1c[nH]c2cccc(OC)c12)C(=O)O; X1 = O=C(C(N[*:1])C(O)c1ccccc1)[*:2]; NMeT = CN[CH](C(=O)O)[CH](C)O; NMeI = CC[CH](C)[CH](NC)C(=O)O; ξNMe2Val = CC(C)C(C(=O)*)N(C)C; NMeL = CN[CH](CC(C)C)C(=O)O; NMeV = CN[CH](C(=O)O)C(C)C

On to `CCC(C)C(C(=O)NC1C(=O)N(C)C(C(C)O)C(=O)NC(C(C)C)C(=O)N(C)C(CC(C)C)C(=O)NC(C(C)C)C(=O)N(C)C(C(C)C)C(=O)N(C)C(Cc2c[nH]c3cccc(OC)c23)C(=O)NC(C(C)C)C(=O)NC(C(O)c2ccccc2)C(=O)NC(C(C)C)C(=O)OC1C)N(C)C(=O)C(NC(=O)C(C(C)C)N(C)C)C(C)C` (stereo not drawn) [ECU, ecumicin] (ξNMe2Val-V[NMeI]T[NMeT]V[NMeL]V[NMeV][NMeTrp(4-OMe)]V[X1]V; ester 3-C; configuration not given here), for which, in data set [1], the “effect on proteolytic activity” value is recorded as “decrease the proteolytic activity”. Further, in data set [2], the “effect on ATPase activity” value is on record as “activate the ATPase activity” and the “enhancement of ATPase activity of ClpC1” value is listed as “at least twofold”. Also, the “χ^2 of one-site fit” value in data set [3] (1:1 Langmuir model, smaller = better fit) amounted to 16.1. Further, in data set [3], the “Stoichiometry (Sm)” value is given as 2.2; the “improvement of χ^2, multi-site versus one-site fit” value was “fivefold”; the “difference between Kd1 and Kd2” value is reported as “about 18 fold”. Besides, the “χ^2 of multi-site fit” value in data set [3] (heterogeneous ligand model, smaller = better fit) is 3.2. The “solubility (in words)” value in data set [4] is reported as “poor solubility”. Also, the MIC90 in data set [5] was determined as 0.11 ± 0.013 µM (≈ 0.176 µg/mL).

For `CN[C@H](C(=O)N[C@H](C(=O)N[C@@H]1C(=O)N(C)[C@@H]([C@@H](C)O)C(=O)N[C@@H](C(C)C)C(=O)N(C)[C@@H](CC(C)C)C(=O)N[C@@H](C(C)C)C(=O)N(C)[C@@H](C(C)C)C(=O)N(C)[C@@H](Cc2c[nH]c3cccc(OC)c23)C(=O)N[C@@H](C(C)C)C(=O)N[C@@H]([C@H](O)c2ccccc2)C(=O)N[C@@H](C(C)C)C(=O)O[C@@H]1C)C(C)C)C(C)C` [OMS-A, ohmyungsamycin A] (H-[NMeV]VT[NMeT]V[NMeL]V[NMeV][NMeTrp(4-OMe)]V[Phe(3R-OH)]V; ester 3-C), in data set [3], the “Stoichiometry (Sm)” value is recorded as 2.2; the “improvement of χ^2, multi-site versus one-site fit” value was “threefold”; the “difference between Kd1 and Kd2” value is “fivefold”.

With `C/C=C/C[C@@H]1NC(=O)[C@H](CC(C)C)N(C)C(=O)[C@H](CC(C)C)NC(=O)[C@H](Cc2ccc(O)c([N+](=O)[O-])c2)NC(=O)[C@H](C)N2C(=O)[C@H](CC(C)C2O)N(C)C(=O)[C@H](Cc2cn(C(C)(C)C3CO3)c3ccccc23)NC1=O` (stereo partly drawn) [RUF-I, rufomycin I], in data set [1], the effect on proteolysis entry is given as “inhibition”. For the same molecule, in data set [2], the “effect on ATPase activity” value is recorded as “no significant effect” and the “enhancement of ATPase activity of ClpC1” value was “no significant effect”. Moreover, the “binding in the presence of ECU” value in data set [6] was “cannot bind in the presence of ECU”.

With cyclomarin A [CYMA, reference compound], the effect on proteolysis entry in data set [1] is listed as “activation”. For the same molecule, the “effect on ATPase activity” value in data set [2] was “no effect on the ATPase activity”.

As to ecumicin (ECU) (peptide), in data set [7], the stoichiometry N was 2.2. The stoichiometry N (ECU per ClpC1-NTD) in data set [8] worked out at 2.

Consider lassomycin [reference compound], for which the “effect on proteolytic activity” value in data set [1] is “decrease the proteolytic activity”. Besides, the “effect on ATPase activity” value in data set [2] was “activate the ATPase activity”.

ohmyungsamycin A (OMS-A) (peptide): in data set [7], the stoichiometry N worked out at 2.2.

Regarding ohmyungsamycin B (OMS-B) (peptide), in data set [7], the Kd1 (site 1, multi-site fit) was determined as 962 nM and the Kd2 (site 2, multi-site fit) came to 1740 nM.

For ohmyungsamycin B [OMS-B], in data set [3] (structural analogs of ECU), the “reduction in binding relative to ECU” value is recorded as “tenfold”.
